For twelve molecules, GI50 and TGI results are on record in PubChem BioAssay (NCI).

Where “and” joins values, the source holds several entries; their conditions need not be identical. Equal entries are not always repeated.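 How tested: cells in 96-well plates exposed to compound for 48 hours at five concentrations. GI50 marks 50% less growth. TGI: concentration producing complete growth inhibition.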

Test systems include NCI-H23 lung; 786-0 renal; UACC-62 melanoma; OVCAR-4 ovarian; U251 CNS; K-562 leukemia; MCF7 breast; MDA-MB-435; A498 renal; NCI/ADR-RES ovarian.
Test in all cases: DTP human tumour cell line panel, 48 h

As usually defined, the GI50 is the concentration giving 50% growth inhibition. What is called TGI is the concentration giving total growth inhibition. A lower TGI goes with more potent growth arrest.

Consider `O=c1c2ccccc2c(=O)n2n1-c1cccc(c1)CSSCc1cccc-2c1`, for which the GI50 in the test with NCI-H23 lung, with UACC-62 melanoma, with OVCAR-4 ovarian and in the test on K-562 leukemia was > 100 µM in each case. The TGI with NCI-H23 lung, in the test with 786-0 renal, in the test with UACC-62 melanoma, with OVCAR-4 ovarian, with U251 CNS and in the test with K-562 leukemia was > 100 µM throughout.

As for `O=C(O)c1ccccc1NS(=O)(=O)c1ccc(Cl)cc1`, the TGI in the test on NCI-H23 lung, in the test with 786-0 renal, in the test with UACC-62 melanoma, in the test on OVCAR-4 ovarian, in the test with U251 CNS and with K-562 leukemia was > 100 µM in each case.

As for `O=c1cc(-c2cccc(Cl)c2)[nH]c2cc3c(cc12)OCO3`, the GI50 in the test with NCI-H23 lung is 3.37 µM; with A498 renal it was 1.04 µM; with 786-0 renal it was 0.544 µM; with OVCAR-4 ovarian, 43 µM. The TGI in the test on NCI-H23 lung was 3.45 µM and 13.2 µM; in the test with MCF7 breast, > 100 µM; in the test on MDA-MB-435, 0.193 µM; in the test with A498 renal it was 36.9 µM and 29.6 µM; in the test on 786-0 renal it was 23.4 µM and 23.8 µM; in the test with UACC-62 melanoma, 0.556 µM. Further, the TGI was > 100 µM with OVCAR-4 ovarian and 10.3 µM in the test on U251 CNS.

As to `N#Cc1cnc2ccc(NCc3cnc[nH]3)cc2c1Nc1ccc(F)c(Cl)c1`, the GI50 is > 100 µM in the test with NCI-H23 lung; 20.1 µM with MCF7 breast; 14.7 µM with MDA-MB-435; 9.21 µM in the test on 786-0 renal; 13.9 µM in the test with UACC-62 melanoma; 2.44 µM in the test on OVCAR-4 ovarian. Besides, the GI50 was 8.96 µM with U251 CNS, > 100 µM in the test with NCI/ADR-RES ovarian and 9.3 µM in the test with K-562 leukemia. Besides, the TGI in the test on NCI-H23 lung was > 100 µM; in the test with MCF7 breast, > 100 µM; in the test with MDA-MB-435, 88.5 µM; with 786-0 renal it was > 100 µM; in the test with UACC-62 melanoma, 75 µM; in the test on OVCAR-4 ovarian, > 100 µM. Also, the concentration for total growth inhibition (TGI) with U251 CNS, with NCI/ADR-RES ovarian and in the test on K-562 leukemia was > 100 µM each time.

Regarding `CCN(CC)CCN1C(=O)C2C3C(C)=CC(OC(C)=O)(CC3C)C2C1=O` (stereo unspecified), the GI50 in the test with NCI-H23 lung, in the test on MDA-MB-435, in the test with A498 renal, in the test with 786-0 renal, in the test with UACC-62 melanoma and in the test on OVCAR-4 ovarian was > 100 µM in each case. In addition, the GI50 with U251 CNS, in the test with NCI/ADR-RES ovarian and with K-562 leukemia was > 100 µM in each case. Besides, the TGI in the test on NCI-H23 lung, in the test with MDA-MB-435, with A498 renal, in the test with 786-0 renal, in the test on UACC-62 melanoma and with OVCAR-4 ovarian was > 100 µM in each case. Further, the TGI in the test on U251 CNS, in the test on NCI/ADR-RES ovarian and in the test with K-562 leukemia was > 100 µM throughout.

Regarding `CC1COS(=O)N1c1ccccc1` (stereo unspecified), the TGI in the test on NCI-H23 lung, in the test with A498 renal, in the test with 786-0 renal, in the test with UACC-62 melanoma, with OVCAR-4 ovarian and in the test with U251 CNS was > 100 µM each time. In addition, the TGI with K-562 leukemia was > 100 µM.

Consider `O=C1c2ccccc2C(=O)N1C/C=N/NS(=O)(=O)c1cccc([N+](=O)[O-])c1`, for which the TGI with NCI-H23 lung, with A498 renal, in the test with 786-0 renal, with UACC-62 melanoma, in the test on OVCAR-4 ovarian and in the test on U251 CNS was > 100 µM each time. Moreover, the TGI with K-562 leukemia is > 100 µM.

Take `CSC(=Nc1ccc([N+](=O)[O-])cc1C#N)NC(=O)c1ccccc1`: the TGI with NCI-H23 lung, in the test with A498 renal, with 786-0 renal, in the test on UACC-62 melanoma, in the test on OVCAR-4 ovarian and in the test on U251 CNS was > 100 µM throughout. The total growth inhibition concentration (TGI) in the test on K-562 leukemia is > 100 µM.

With `CCC(=O)N1C(=S)SC[C@H]1C(=O)OC`, the TGI with NCI-H23 lung, with A498 renal, in the test on 786-0 renal, with UACC-62 melanoma, in the test with OVCAR-4 ovarian and in the test with U251 CNS was > 100 µM throughout. The TGI in the test on K-562 leukemia is > 100 µM.

Regarding `CC[O-].CC[O-].[O-]c1ccccc1C=NC12CC3CC(CC(C3)C1)C2.[O-]c1ccccc1C=NC12CC3CC(CC(C3)C1)C2.[Ti+4]`, the GI50 in the test on NCI-H23 lung is 50 µM; in the test with 786-0 renal, > 100 µM; in the test with UACC-62 melanoma, 19.6 µM; in the test with OVCAR-4 ovarian, > 100 µM; with U251 CNS, > 100 µM; with K-562 leukemia it was 31.4 µM. Besides, the TGI in the test on NCI-H23 lung, in the test on 786-0 renal, with UACC-62 melanoma, in the test with OVCAR-4 ovarian, in the test with U251 CNS and in the test on K-562 leukemia was > 100 µM each time.

With `Cc1cc[c]([Sb]2[O]C(CO)C(C(O)C(O)C(=O)O)[O]2)cc1` (stereo unspecified), the GI50 in the test with NCI-H23 lung was > 100 µM; in the test with MDA-MB-435, 81.7 µM; in the test on A498 renal it was 32.3 µM; in the test on 786-0 renal, 38.4 µM; in the test with UACC-62 melanoma, > 100 µM; in the test with OVCAR-4 ovarian it was > 100 µM. Moreover, the GI50 is 29.1 µM in the test with U251 CNS, > 100 µM in the test with NCI/ADR-RES ovarian and 46.5 µM in the test on K-562 leukemia. Also, the total growth inhibition concentration (TGI) was > 100 µM in the test with NCI-H23 lung; > 100 µM in the test with MDA-MB-435; 99.7 µM in the test on A498 renal; > 100 µM in the test on 786-0 renal; > 100 µM in the test on UACC-62 melanoma; > 100 µM in the test on OVCAR-4 ovarian. Also, the TGI with U251 CNS, in the test on NCI/ADR-RES ovarian and with K-562 leukemia was > 100 µM in each case.

In the case of `[O-]c1ccccc1C=NCCN=Cc1ccccc1[O-].[O]=[U+2]=[O]`, the GI50 with NCI-H23 lung was 22.6 µM; in the test with A498 renal, > 45.6 µM; in the test on 786-0 renal, 18.6 µM; in the test with UACC-62 melanoma, 37.4 µM; in the test on OVCAR-4 ovarian, 19 µM; in the test on U251 CNS it was 19.3 µM. For the same molecule, the GI50 in the test on K-562 leukemia is > 79.5 µM. Moreover, the TGI is 61.1 µM in the test on NCI-H23 lung; > 64.8 µM in the test with A498 renal; 39.2 µM with 786-0 renal; > 74.3 µM in the test with UACC-62 melanoma; 64.1 µM with OVCAR-4 ovarian; 39.1 µM in the test with U251 CNS. Moreover, the TGI in the test on K-562 leukemia is > 100 µM.
